From patent publication US20120270832A1, “KETONE ACCUMULATION INHIBITOR” (MITSUI SUGAR CO., LTD., priority 2008, published 2012)
Entries after “also recorded” stand apart in the source; their conditions may differ.

What was measured:
[1] = into 100 g water at 20° C.; cited from earlier work
[2] = Drinking test: test drink intake after one hour of exercising; format: in vivo, human; conditions: for blood free fatty acid levels changes over time: FIG. 4; for blood lactic acid levels changes over time: FIG. 5; for blood total ketone bodies levels changes over time: FIG. 13; for amount of oxidized carbohydrate changes over time / amount of oxidized lipids (fat) changes over time: calculated from VO2 and VCO2 by Frayn's equation; for amount of oxidized carbohydrate changes over time: FIG. 7; for amount of oxidized lipids (fat) changes over time: FIG. 8; for respiratory quotient changes over time: calculated from oxygen intake and carbon dioxide excretion, FIG. 6; for lipid oxidation, overall finding: recognized from FIGS. 4, 5, 7 and 8; for blood glucose levels (blood sugar level) changes over time: male subjects with suspected metabolic syndrome, drink in 500 ml water taken after 1 h exercise at about 50% VO2 max, blood sampled 10-120 min after intake, FIG. 1
Description: To male subjects with suspected metabolic syndrome and 85 cm or more of abdominal circumferences who lack in exercise, the following test was conducted. […] The subjects, who had family histories of cardiopathy or type 2 diabetes and/or had dyslipidemia, were eliminated from the test. Palatinose or high-fructose corn syrup was dissolved in 500 ml of water so that its intake per kg of body weight could be 1.0 g of the solid, and sucralose, a high intensity sweetener, was dissolved in 500 ml of water so that its intake per kg of body weight could be 1.33 mg of the solid that gives the degree of sweetness between the high-fructose corn syrup and palatinose solutions, to prepare three kinds of test drinks. For these three kinds of drinks, drinking tests were conducted, respectively and each test was conducted at intervals of ten days or longer. The high-fructose corn syrup is composed of glucose and fructose, the same constituent sugars as sucrose and palatinose, and its calorie per the solid is 4 kcal/g which is the same value as that of sucrose and palatinose.
The method of physical measurement for the subjects was based on ACSM guideline (American College of Sports Medicine, 2001). Respiratory gas was collected and analyzed by a respiratory gas automatic analyzer (Oxycon Alpha, manufactured by Mijnhardt) every 30 seconds during the test. Maximal oxygen uptake (VO2max) was calculated by increasing exercise loading gradually with a bicycle ergometer (818E, manufactured by Monark).
The tests were conducted as a double-blind crossover tests and dietary restriction was imposed on the subjects from two days before the tests. All subjects were instructed to abstain from alcohol, caffeine, green tea and high-intensity exercising 24 hours before the tests. Moreover, they recorded food intake two days before the first tests and repeated the same food intake before the second tests. This is for standardizing of the food intake before the tests and for minimizing the change of glycogen storage. All subjects took the same food as the dinner a day before all tests (725 kcal, 60% of the energy from carbohydrate, 30% from lipid and 10% from protein). After an overnight (10 hours to 12 hours) fast, the tests were conducted. During the fasting period, they were permitted to take water freely.
In order to avoid the effect of circadian rhythm, the tests were started at the same time. After the 15 minutes rest, the first venous blood sampling was conducted. The subjects exercised for an hour with loading of about 50% of VO2 max by a bicycle ergometer. After exercising, blood sampling was conducted and they took the test drinks for 5 minutes. Blood sampling was conducted at time points of 10, 20, 30, 45, 60, 75, 90, 105 and 120 minutes after the test drink was taken in. The collected blood samples were submitted for various biochemical measurements. After the drink intake, their heart rates were continuously measured with an electrocardiograph (Dyan Scope, manufactured by Fukuda Denshi).
On the assumption that oxidation of proteins during exercising can be ignored, oxidation of total carbohydrates and lipids was calculated from VO2 and VCO2 using Frayn's equation. The VO2 and VCO2 represent oxygen intake and carbon dioxide excretion in L/min, respectively. Respiratory quotient (RQ) was calculated from oxygen intake and carbon dioxide excretion. Calorie consumption rate was calculated from RQ and VO2 using Lusk's equation.

Row | SMILES | solubility into 100 g water [1] | blood insulin levels changes over time (insulin secretion) ([2]; drink intake after exercising, FIG. 2) | blood free fatty acid levels changes over time ([2]; drink intake after exercising) | blood lactic acid levels changes over time ([2]; drink intake after exercising) | blood neutral fat levels changes over time ([2]; drink intake after exercising, FIG. 9) | blood epinephrine levels changes over time ([2]; drink intake after exercising, FIG. 10) | blood nolepinephrine levels changes over time ([2]; drink intake after exercising, FIG. 11) | blood total ketone bodies levels changes over time ([2]; drink intake after exercising) | amount of oxidized carbohydrate changes over time ([2]; drink intake after exercising) | amount of oxidized lipids (fat) changes over time ([2]; drink intake after exercising) | respiratory quotient changes over time ([2]; drink intake after exercising) | lipid oxidation, overall finding ([2]; drink intake after exercising) | blood glucose levels (blood sugar level) changes over time [2] | blood 3-OHBA levels changes over time ([2]; drink intake after exercising, FIG. 12)
1 | O.OC[C@H]1O[C@H](OC[C@H]2OC(O)(CO)[C@@H](O)[C@@H]2O)[C@H](O)[C@@H](O)[C@@H]1O (stereo partly shown) [Palatinose monohydrate] | 38.4 g | – | – | – | – | – | – | – | – | – | – | – | – | –
2 | OC[C@H]1O[C@H](OC[C@H]2OC(O)(CO)[C@@H](O)[C@@H]2O)[C@H](O)[C@@H](O)[C@@H]1O (stereo partly shown) [palatinose, isomaltulose] | – | mild | between those in taking high-fructose corn syrup and in taking sucralose | between those in taking high-fructose corn syrup and in taking sucralose | no effect | no effect | no effect | dropped without their accumulation in blood; also recorded: inhibit accumulation of ketone bodies | between those of high-fructose corn syrup and sucralose | between those of high-fructose corn syrup and sucralose | between those in taking high-fructose corn syrup and in taking sucralose | rather difficult to prevent | rose slowly thereafter, surpassed that in the case of taking high-fructose corn syrup around 60 minutes thereafter, and continued maintaining a relatively high value | –
3 | OC[C@H]1O[C@H](O[C@]2(CCl)O[C@H](CCl)[C@@H](O)[C@@H]2O)[C@H](O)[C@@H](O)[C@H]1Cl [sucralose, reference compound] | – | – | the higher values were maintained | no change | – | – | – | rose | lower values | higher values | ~0.7 | maintained | did not rise | rose
